In ChEMBL document CHEMBL1201862, “PubChem BioAssay data set” (2004):
Activity calls are given as the source filed them.

Columns and labels:
[1] = NIH-3T3 fibroblast cytotoxicity, dose response, cytotoxicity control, cell-based, fluorescence, Alamar Blue, secondary assay (AID 2327); type: functional;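 note: NIH-3T3 mouse fibroblasts cultured with fluconazole at 8 µg/mL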
BJ [2] = test: BJ-TERT fibroblast viability loss – cell-based, RAS-independent, luminescence, dose response (AID 1933); type: functional; conditions: Homo sapiens
BJ [3] = test: cells; type: functional, cell-based; conditions: Homo sapiens
[4] = fluconazole-exposed Candida albicans growth modulators – fluorescence, retest, confirmation (AID 2467); type: functional, cell-based
BJ [5] = test: BJ-TERT-LT-ST fibroblast viability loss – cell-based, RAS-independent, luminescence, dose response (AID 1935); type: functional; conditions: Homo sapiens;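 note: BJ fibroblasts immortalized with TERT plus LT and ST oncogenes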
[6] = DRD fibroblast viability loss – cell-based, non-viral oncogenic, luminescence, dose response (AID 1934); type: functional; conditions: Homo sapiens
[7] = target: T1, Ubiquitin-conjugating enzyme E2 N (Homo sapiens, UniProt P61088); type: functional;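 note: Dose-response confirmation in a TR-FRET assay detecting UBC13-driven polyubiquitin chain formation, inhibition measured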
T1 sequence (P61088 whole entry): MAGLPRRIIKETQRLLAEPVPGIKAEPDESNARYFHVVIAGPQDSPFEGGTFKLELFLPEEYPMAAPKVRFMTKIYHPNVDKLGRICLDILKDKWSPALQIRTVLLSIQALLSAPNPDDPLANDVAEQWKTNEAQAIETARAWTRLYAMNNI

Mu-type opioid receptor = Mu-type opioid receptor (Homo sapiens, UniProt P35372); type: functional, cell-based;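 note: U2OS cells with beta-arrestin recruitment to OPRM1 by beta-gal complementation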
Mu-type opioid receptor, sequence (P35372 whole entry): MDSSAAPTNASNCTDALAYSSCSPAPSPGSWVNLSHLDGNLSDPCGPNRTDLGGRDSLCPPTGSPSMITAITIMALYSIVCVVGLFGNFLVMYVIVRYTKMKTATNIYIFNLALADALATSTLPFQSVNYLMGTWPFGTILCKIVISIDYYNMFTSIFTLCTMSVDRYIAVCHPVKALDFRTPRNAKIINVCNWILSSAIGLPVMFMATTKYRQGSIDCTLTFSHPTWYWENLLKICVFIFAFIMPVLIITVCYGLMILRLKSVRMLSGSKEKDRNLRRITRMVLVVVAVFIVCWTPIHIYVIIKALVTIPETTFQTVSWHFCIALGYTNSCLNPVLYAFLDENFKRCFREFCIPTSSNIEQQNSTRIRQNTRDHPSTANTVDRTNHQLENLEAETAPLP

[8] = target: 5-hydroxytryptamine receptor 2A (Mus musculus, UniProt P35363); type: functional, cell-based;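 note: CHO-K1 cells with tagged receptor and beta-arrestin; agonist potency measured as compound-induced activation of the receptor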
5-hydroxytryptamine receptor 2A, sequence (P35363 whole entry): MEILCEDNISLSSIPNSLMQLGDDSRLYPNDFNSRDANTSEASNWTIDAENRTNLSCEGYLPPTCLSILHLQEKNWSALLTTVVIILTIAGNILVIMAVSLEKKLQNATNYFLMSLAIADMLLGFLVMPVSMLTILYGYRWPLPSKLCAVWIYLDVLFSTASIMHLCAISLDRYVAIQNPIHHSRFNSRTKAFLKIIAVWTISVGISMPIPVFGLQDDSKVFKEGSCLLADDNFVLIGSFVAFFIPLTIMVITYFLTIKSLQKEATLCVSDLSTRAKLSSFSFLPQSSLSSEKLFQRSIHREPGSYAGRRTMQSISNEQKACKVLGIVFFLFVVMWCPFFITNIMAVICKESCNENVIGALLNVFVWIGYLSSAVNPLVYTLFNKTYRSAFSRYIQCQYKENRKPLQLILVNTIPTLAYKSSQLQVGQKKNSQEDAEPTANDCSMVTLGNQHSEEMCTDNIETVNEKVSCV

[9] = target: Voltage-gated inwardly rectifying potassium channel KCNH2 (Homo sapiens, UniProt Q12809); conditions: Potency;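 note: confirmatory quantitative high-throughput screen measuring inhibition of hERG channel activity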
Voltage-gated inwardly rectifying potassium channel KCNH2, sequence (Q12809 whole entry): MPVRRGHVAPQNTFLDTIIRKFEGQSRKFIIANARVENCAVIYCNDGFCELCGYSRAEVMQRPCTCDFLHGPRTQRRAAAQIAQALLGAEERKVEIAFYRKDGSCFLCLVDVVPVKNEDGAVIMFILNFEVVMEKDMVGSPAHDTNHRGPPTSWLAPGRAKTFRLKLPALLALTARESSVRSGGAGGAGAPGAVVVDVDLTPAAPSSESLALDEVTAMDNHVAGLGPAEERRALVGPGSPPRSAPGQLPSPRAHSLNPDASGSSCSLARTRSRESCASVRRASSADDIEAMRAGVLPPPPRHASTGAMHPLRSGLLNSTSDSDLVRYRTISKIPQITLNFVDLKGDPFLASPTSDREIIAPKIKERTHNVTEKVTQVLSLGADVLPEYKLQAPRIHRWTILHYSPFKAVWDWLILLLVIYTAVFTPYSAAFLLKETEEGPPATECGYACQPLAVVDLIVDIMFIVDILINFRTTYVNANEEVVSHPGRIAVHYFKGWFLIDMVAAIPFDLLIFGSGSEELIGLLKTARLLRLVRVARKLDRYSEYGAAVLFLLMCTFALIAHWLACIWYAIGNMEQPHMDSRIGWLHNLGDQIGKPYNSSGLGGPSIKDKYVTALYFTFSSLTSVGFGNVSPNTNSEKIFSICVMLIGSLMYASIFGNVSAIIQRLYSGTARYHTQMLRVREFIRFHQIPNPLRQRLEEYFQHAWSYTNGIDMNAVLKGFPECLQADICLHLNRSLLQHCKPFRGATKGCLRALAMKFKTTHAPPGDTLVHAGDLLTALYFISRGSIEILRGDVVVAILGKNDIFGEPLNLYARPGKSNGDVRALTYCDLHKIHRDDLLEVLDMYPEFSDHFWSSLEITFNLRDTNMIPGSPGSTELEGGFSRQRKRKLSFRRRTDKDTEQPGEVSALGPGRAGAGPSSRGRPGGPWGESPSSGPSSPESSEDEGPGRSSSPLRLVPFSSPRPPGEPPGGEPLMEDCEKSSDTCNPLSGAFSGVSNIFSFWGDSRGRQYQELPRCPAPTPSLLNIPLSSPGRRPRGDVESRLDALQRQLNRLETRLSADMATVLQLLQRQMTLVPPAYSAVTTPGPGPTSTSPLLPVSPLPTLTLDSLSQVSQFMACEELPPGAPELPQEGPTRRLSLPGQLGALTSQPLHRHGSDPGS

[10] = target: T2, Microphthalmia-associated transcription factor (Homo sapiens, UniProt O75030); test: reducers of TRPM1 reporter luminescence, concentration series – cell-based, SK-MEL-5, cherry-picked, set 3, MITF inhibitor project, dose response (AID 493073); type: functional;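 note: SK-MEL-5 melanoma cells with luciferase driven by the MITF target TRPM1 promoter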
T2 sequence (O75030 whole entry): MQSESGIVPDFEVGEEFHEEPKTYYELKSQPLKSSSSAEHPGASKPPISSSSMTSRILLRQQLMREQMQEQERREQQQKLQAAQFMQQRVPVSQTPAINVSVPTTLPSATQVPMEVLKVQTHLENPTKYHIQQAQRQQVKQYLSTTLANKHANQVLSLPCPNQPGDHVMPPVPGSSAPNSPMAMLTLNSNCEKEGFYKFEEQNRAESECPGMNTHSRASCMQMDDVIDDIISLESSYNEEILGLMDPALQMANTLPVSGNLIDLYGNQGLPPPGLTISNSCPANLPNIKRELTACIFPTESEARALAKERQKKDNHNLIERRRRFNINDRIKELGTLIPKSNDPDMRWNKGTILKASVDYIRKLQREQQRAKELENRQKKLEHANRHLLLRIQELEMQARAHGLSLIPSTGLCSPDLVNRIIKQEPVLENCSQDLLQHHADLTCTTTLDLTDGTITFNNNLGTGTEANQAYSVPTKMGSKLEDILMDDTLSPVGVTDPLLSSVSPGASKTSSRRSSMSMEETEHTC

A-375 = test: MITF: Counter assay: A375 proliferation Measured in Cell-Based System Using Plate Reader - 2084-03_Inhibitor_Dose_DryPowder_Activity. [Related pubchem assays (depositor defined):AID488944]; type: functional; conditions: Homo sapiens
[11] = target: T3, DNA repair protein RAD52 homolog (Homo sapiens, UniProt P43351); type: functional, biochemical
T3 sequence (P43351 whole entry): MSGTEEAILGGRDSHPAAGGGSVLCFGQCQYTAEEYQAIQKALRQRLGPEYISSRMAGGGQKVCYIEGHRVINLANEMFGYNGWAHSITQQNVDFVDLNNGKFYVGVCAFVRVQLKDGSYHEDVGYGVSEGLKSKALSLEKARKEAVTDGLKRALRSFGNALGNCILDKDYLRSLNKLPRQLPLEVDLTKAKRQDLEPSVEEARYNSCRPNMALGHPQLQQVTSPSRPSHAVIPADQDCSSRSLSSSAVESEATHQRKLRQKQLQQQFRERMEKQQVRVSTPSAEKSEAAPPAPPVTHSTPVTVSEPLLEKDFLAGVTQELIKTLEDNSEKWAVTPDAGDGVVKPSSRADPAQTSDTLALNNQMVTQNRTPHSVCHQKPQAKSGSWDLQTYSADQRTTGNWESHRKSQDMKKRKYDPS

[12] = Trypanosoma cruzi growth suppression in host cells – NIH3T3 host cells, beta-gal luminescence, confirmation (AID 2044); type: functional, cell-based;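 note: intracellular parasites grown in NIH/3T3 mouse fibroblasts as host cells; luminescent beta-galactosidase reporter signal from transgenic T. cruzi replicating inside host cells; inhibitors lower the luminescence signal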
[13] = NIH3T3 cell viability loss – ATP luminescence, mouse fibroblasts, counter-screen, dose response (AID 2010); type: functional, cell-based;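 note: cells exposed to compound for about 90 hours before reading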
[14] = THP-1 cell cytotoxicity, dose response, cytotoxicity control for non-replicating M. tuberculosis project (AID 489025); type: functional
[15] = HepG2 cell cytotoxicity, dose response, cytotoxicity control for non-replicating M. tuberculosis project (AID 489018); type: functional; conditions: Mycobacterium tuberculosis
Beta-galactosidase = Beta-galactosidase (Escherichia coli, UniProt Q8VNN2); test: detection-enzyme interference by beta-gal modulators – biochemical, E. coli enzyme, set 3, artefact control for CCR6 antagonist project, dose response (AID 504712); type: functional
Beta-galactosidase, sequence (Q8VNN2 whole entry): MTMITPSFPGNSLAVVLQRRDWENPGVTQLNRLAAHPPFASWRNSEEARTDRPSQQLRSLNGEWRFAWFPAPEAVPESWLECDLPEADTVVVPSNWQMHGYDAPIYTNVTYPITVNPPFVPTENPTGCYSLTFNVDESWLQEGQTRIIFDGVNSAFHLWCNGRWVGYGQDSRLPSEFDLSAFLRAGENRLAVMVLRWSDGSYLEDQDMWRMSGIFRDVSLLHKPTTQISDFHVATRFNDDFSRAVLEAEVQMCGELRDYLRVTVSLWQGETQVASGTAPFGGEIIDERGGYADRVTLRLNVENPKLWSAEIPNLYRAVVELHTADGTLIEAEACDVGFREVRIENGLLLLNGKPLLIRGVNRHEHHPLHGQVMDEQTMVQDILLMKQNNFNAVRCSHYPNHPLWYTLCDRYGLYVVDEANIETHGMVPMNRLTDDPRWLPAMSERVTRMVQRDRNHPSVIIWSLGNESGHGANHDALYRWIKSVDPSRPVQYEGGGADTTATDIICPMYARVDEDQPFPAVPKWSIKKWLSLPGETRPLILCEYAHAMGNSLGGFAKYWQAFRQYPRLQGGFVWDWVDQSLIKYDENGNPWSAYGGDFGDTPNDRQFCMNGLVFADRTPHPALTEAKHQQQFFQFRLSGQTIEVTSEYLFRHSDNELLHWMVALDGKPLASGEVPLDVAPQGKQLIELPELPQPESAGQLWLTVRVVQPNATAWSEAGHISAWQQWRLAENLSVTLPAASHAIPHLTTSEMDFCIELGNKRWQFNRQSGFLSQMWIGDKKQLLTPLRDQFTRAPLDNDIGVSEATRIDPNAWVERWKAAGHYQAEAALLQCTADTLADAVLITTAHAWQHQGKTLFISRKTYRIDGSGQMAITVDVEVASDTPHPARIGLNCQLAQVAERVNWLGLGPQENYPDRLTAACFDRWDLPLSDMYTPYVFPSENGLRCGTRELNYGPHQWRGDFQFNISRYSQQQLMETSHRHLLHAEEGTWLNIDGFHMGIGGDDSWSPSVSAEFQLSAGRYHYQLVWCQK

[16] = Vero E6 cell cytotoxicity, dose response, cytotoxicity control for non-replicating M. tuberculosis project, secondary assay (AID 492998); type: functional, VeroE6; conditions: Vero C1008
cells = type: functional
[17] = target: T4, Replicative DNA helicase DnaB (Mycobacterium tuberculosis, UniProt P9WMR3); test: DnaB intein splicing inhibitors, dose response, biochemical, cell-free fluorescence (AID 449749); type: functional
T4 sequence (P9WMR3 whole entry): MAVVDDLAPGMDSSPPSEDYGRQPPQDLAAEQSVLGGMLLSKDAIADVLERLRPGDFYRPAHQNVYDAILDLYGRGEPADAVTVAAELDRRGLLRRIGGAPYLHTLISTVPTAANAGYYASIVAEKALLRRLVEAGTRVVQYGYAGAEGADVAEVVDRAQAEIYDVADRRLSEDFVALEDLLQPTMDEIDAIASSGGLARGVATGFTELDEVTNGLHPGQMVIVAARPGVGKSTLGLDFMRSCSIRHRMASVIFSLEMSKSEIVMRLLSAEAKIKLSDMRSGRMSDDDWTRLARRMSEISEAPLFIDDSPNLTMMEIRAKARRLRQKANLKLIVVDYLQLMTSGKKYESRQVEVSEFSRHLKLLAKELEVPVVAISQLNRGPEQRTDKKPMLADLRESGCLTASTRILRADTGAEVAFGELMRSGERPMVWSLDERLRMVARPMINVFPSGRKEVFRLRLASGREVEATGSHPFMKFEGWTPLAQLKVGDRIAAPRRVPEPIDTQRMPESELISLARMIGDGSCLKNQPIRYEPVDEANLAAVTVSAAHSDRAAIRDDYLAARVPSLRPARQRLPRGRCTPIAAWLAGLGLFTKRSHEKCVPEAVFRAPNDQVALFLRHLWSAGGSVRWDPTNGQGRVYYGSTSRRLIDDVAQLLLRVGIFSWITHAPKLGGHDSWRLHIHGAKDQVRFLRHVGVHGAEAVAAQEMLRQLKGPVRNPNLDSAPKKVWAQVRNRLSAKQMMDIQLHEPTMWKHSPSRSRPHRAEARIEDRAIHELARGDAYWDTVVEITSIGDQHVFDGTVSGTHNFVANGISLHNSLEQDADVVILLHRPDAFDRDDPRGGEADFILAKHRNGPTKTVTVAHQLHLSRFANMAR

[18] = target: Heat shock protein HSP 90-alpha (Homo sapiens, UniProt P07900); type: functional, organism-based
Apelin receptor = Apelin receptor (Homo sapiens, UniProt P35414); test: apelin receptor antagonists, arrestin read-out – cell-based, luminescent, enzyme-fragment complementation, selectivity assay for CCR6 antagonist project, SAR follow-up (AID 588359); type: functional
Apelin receptor, sequence (P35414 whole entry, the tested form may be a part): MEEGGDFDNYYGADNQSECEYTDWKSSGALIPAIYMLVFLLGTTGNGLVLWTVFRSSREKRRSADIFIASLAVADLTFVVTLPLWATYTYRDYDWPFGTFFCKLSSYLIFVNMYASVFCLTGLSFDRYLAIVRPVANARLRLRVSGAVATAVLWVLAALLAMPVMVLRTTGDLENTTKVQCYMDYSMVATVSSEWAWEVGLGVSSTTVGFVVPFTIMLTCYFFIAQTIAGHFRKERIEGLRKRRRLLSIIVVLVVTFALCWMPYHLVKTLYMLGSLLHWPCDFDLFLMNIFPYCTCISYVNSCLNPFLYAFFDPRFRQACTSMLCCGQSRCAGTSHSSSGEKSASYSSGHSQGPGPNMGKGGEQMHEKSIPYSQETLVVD

Protein RecA = target: T5, Protein RecA (Mycobacterium tuberculosis, UniProt P9WHJ3); test: Fluorescence Cell-Free Homogeneous Dose Retest to Identify Inhibitors of RecA-Intein Splicing Activity. [Related pubchem assays (depositor defined):AID2097, AID2223, AID489010, AID492950]; type: functional
T5 sequence (P9WHJ3 whole entry): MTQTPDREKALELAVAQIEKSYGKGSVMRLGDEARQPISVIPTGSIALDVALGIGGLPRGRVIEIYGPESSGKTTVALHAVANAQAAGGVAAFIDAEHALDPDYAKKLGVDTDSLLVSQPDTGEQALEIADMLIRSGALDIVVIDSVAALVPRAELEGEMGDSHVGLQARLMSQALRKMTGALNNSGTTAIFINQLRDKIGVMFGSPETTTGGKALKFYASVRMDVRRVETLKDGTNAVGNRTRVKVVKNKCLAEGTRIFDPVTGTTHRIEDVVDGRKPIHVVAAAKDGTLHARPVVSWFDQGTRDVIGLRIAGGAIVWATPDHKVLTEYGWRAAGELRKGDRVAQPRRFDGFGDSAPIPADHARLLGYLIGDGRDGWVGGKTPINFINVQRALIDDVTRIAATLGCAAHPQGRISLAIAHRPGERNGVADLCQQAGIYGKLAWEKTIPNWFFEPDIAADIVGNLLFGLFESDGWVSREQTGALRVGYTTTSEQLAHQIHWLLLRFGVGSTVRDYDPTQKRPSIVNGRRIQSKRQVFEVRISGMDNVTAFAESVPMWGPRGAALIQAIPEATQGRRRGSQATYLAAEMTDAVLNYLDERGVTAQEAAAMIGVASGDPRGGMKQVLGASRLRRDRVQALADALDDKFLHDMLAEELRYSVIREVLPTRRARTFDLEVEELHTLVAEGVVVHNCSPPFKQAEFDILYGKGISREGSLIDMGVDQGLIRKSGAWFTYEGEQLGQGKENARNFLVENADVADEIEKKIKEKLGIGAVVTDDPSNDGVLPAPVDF

[19] = target: Beta-2 adrenergic receptor (Homo sapiens, UniProt P07550); test: ADRB2 activation measured by internalization – cell-based, FAP fluorogen, flow cytometry, cherry pick 1, dose response (AID 588763); type: functional
Beta-2 adrenergic receptor, sequence (P07550 whole entry): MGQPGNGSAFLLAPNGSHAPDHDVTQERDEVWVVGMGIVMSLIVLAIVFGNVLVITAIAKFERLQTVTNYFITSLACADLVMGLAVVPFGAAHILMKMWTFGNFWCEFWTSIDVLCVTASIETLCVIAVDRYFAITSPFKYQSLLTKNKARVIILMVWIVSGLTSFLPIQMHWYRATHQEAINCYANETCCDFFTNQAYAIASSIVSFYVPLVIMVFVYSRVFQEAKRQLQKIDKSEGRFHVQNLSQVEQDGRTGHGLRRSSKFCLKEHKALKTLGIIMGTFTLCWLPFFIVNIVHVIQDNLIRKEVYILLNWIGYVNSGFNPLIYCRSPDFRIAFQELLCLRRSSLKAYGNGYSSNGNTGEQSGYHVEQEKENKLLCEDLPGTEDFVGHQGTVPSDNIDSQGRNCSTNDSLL

Escherichia coli = test: microbe, parasite or virus in culture
[20] = NIH/3T3 cell viability loss – mouse embryonic fibroblasts, dry powder, set 2, cytotoxicity control, dose response (AID 493247); type: functional, cell-based; conditions: Fibroblast
Trypanosoma cruzi = test: anti-trypanosomal activity in host cells – cell-based, plate reader, dry powder, set 3, dose response (AID 493197); type: functional
[21] = T. cruzi infection blockers in NIH3T3 cells – beta-gal luminescence, NIH3T3 host cells, confirmation (AID 2630); type: functional, cell-based; conditions: Mus musculus
[22] = target: Dual specificity protein phosphatase 3 (Homo sapiens, UniProt P51452); test: SAR VHR1 Fluorescent Assay for In Vitro dose response studies Set 3. [Related pubchem assays (depositor defined):AID1654, AID1661, AID1878]; type: functional
Dual specificity protein phosphatase 3, sequence (P51452 whole entry): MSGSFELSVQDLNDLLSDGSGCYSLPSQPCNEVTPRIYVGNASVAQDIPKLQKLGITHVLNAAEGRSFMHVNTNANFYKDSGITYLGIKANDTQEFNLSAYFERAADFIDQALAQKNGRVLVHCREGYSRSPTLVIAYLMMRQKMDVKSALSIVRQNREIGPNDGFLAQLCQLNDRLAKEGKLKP

Q: What does the source list for `NC[C@@H]1O[C@H](C23CC4CC(CC(C4)C2)C3)Cc2c1ccc(O)c2O`?
A: EC50 [1]: > 150 µM (inactive); EC50 (BJ [2]): 10.3 µM (inconclusive); EC50 (BJ [3]): > 150 µM (not active); EC50 [4]: 4.44 µM (active); EC50 (BJ [5]): 13.7 µM (inconclusive); EC50 [6]: 13.1 µM (active); IC50 [7]: > 20 µM (inactive); EC50 (Mu-type opioid receptor): 92.4 µM (inactive); EC50 [8]: 1.2 µM (active); AC50 [9]: 22.4 µM (inconclusive)

Q: With `CN1CCC(N(C)C(=O)/C=C/c2cn(-c3ccccc3)nc2-c2cccs2)CC1` as the compound, how does the IC50 [7] read?
A: > 20 µM (inactive)

Q: And the AC50 [10]?
A: 9.82 µM (active)

Q: What about the AC50 (A-375) of the same compound?
A: 30.5 µM (active)

Q: And the AC50 [11]?
A: 12.2 µM (active)

Q: For `O=[N+]([O-])c1ccc(S(=O)(=O)c2cccc(C(F)(F)F)c2)nc1`, which EC50 (BJ [2]) is on record?
A: 2.55 µM (inconclusive)

Q: And the EC50 (BJ [3])?
A: 12.1 µM (inconclusive)

Q: What about the EC50 [12] of the same compound?
A: 0.913 µM (active)

Q: What about the EC50 [13] of the same compound?
A: 2.06 µM (active)

Q: And the EC50 (BJ [5])?
A: 10.8 µM (inconclusive)

Q: And the EC50 [6]?
A: 6.52 µM (active)

Q: What about the CC50 [14] of the same compound?
A: 28.8 µM (active)

Q: What about the CC50 [15] of the same compound?
A: > 20 µM (active)

Q: What about the IC50 (Beta-galactosidase) of the same compound?
A: > 66.6 µM (inactive)

Q: What about the CC50 [16] of the same compound?
A: 14.8 µM (active)

Q: What about the IC50 (cells) of the same compound?
A: 3.47 µM (active)

Q: What about the AC50 [17] of the same compound?
A: > 380 µM (inactive)

Q: And the AC50 [18]?
A: 1.84 µM (active)

Q: What about the IC50 (Apelin receptor) of the same compound?
A: 18.8 µM (active)

Q: What about the EC50 (Protein RecA) of the same compound?
A: 14.2 µM (active)

Q: What about the EC50 [19] of the same compound?
A: 7.62 µM (inactive)

Q: For `COC(=O)c1cnc(NNS(=O)(=O)c2ccc(C(F)(F)F)cc2)nc1C(F)(F)F`, which AC50 (Escherichia coli) is on record?
A: > 380 µM (inactive)

Q: For `CN(Cc1ccccc1)C(=O)C1CCCN(Cc2ccccc2C(F)(F)F)C1` (stereo not given), which AC50 [20] is on record?
A: 63.3 µM (active)

Q: And the AC50 (Trypanosoma cruzi)?
A: 15.9 µM (active)

Q: What about the EC50 [21] of the same compound?
A: 4.64 µM (active)

Q: Which IC50 [22] does the source give for `CCOc1cccc2sc(NC(=O)c3ccc(OC)cc3)nc12` here?
A: 51.7 µM (active)
